# From US20250188044A1 (HARBIN MEDISAN PHARMACEUTICAL CO., LTD., priority 2021, published 2025)
# Where two headings read alike, the source gives them in different places.
# Columns and labels:
# Type in all cases: cell-based
# PPARα = target: T1, PPARα (Homo sapiens, UniProt Q07869); assay: Gal4-PPARα(LBD) reporter gene agonistic activity assay in Cos-7 cells; settings: for EC50: Cos-7 cells, Gal4-PPARα(LBD) reporter, 16 h, 100% = GW7647 10 nM; for agonistic activity for PPARα (EC50 level, in words): Cos-7 reporter assay
# T1 construct: hPPARα (279aa-580aa); expressed in transfected cells; host or cells: Cos-7
# T1 sequence (Q07869 167-468 limits assumed): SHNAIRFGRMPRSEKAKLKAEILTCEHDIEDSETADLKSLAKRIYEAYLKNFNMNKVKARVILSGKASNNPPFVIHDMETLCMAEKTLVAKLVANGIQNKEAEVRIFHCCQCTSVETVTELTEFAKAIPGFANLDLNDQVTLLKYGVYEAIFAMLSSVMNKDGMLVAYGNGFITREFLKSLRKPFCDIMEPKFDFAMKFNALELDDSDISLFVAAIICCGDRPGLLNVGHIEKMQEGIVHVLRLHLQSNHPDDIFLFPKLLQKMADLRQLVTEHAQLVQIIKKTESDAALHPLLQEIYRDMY
# Protocol: (§1) Cos-7 cells (African green monkey kidney fibroblasts, commonly used tool cells) were cultured in a 10 cm cell culture dish in a DMEM complete medium containing 10% fetal bovine serum. When the cells grew to a density of about 70%, the medium was replaced with a fresh medium for later transfection. […] The plasmid working solution was then added to the cell culture dish for cell transfection. […] Test compounds were prepared into appropriate test concentrations with a complete medium and then added to the 96-well plate. […] 10 μL of lysate was pipetted into a white opaque 384-well plate, and then 10 μL of reporter gene assay buffer (purchased from Shanghai Beyotime Biological Tech. Co., Ltd.) was added. The bioluminescence was detected by using a multimode microplate reader, and the corresponding half maximal effective concentration (EC50) value was calculated according to the detection value.
# PPARγ = target: T2, PPARγ (Homo sapiens, UniProt P37231); assay: Gal4-PPARγ(LBD) reporter gene agonistic activity assay in Cos-7 cells; settings: Cos-7 cells, Gal4-PPARγ(LBD) reporter, 16 h; 100% = Rosiglitazone 1 μM
# T2 construct: hPPARγ (281aa-554aa); expressed in transfected cells; host or cells: Cos-7
# T2 sequence (P37231 232-505 limits assumed): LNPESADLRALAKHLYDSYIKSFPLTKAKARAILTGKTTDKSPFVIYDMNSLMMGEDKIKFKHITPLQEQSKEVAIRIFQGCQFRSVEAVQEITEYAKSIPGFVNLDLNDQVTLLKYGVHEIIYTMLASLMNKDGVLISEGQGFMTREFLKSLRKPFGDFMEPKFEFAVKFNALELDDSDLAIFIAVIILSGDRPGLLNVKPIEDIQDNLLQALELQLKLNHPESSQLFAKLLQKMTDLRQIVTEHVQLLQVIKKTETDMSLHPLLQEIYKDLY
# Protocol: as §1
# PPARδ = target: T3, PPARδ (Homo sapiens, UniProt Q03181); assay: Gal4-PPARδ(LBD) reporter gene agonistic activity assay in Cos-7 cells; settings: for agonistic activity for PPARδ (EC50 level, in words): Cos-7 reporter assay
# T3 construct: expressed in transfected cells; host or cells: Cos-7
# T3 sequence (Q03181 139-441 limits assumed): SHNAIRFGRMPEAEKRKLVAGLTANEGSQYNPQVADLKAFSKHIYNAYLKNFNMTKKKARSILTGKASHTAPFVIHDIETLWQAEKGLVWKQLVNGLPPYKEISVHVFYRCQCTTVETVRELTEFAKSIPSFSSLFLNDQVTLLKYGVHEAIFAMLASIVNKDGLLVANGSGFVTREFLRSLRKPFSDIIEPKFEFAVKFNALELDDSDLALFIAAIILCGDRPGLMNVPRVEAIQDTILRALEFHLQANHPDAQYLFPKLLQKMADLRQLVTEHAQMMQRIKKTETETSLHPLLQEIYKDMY
# Protocol: as §1
# [1] = Cos-7 cells, Gal4-PPARδ(LBD) reporter, 16 h, 100% = GW501516 10 nM
Structure (SMILES),EC50 (PPARα) [µM],EC50 (PPARγ) [µM],EC50 (PPARδ; [1]) [µM],"agonistic activity for PPARδ (EC50 level, in words) (PPARδ)","agonistic activity for PPARα (EC50 level, in words) (PPARα)",EC50 (PPARδ) [µM]
"Cc1cc(SCn2ncn(-c3ccc(C(F)(F)F)cc3)c2=O)cc(C)c1OC(C)(C)C(=O)O [Compound 198, 2-(2,6-Dimethyl-4-(((5-oxo-4-(4-(trifluoromethyl)phenyl)-4,5-dihydro-1H-1,2,4-triazol-1-yl)methyl)thio)phenoxy)-2-methylpropionic acid]",0.289,2.85,–,–,–,–
"CC(C)(Oc1ccc(Cn2ncn(-c3ccc(C(F)(F)F)cc3)c2=O)cc1F)C(=O)O [Compound 123, 2-(2-Fluoro-4-((5-oxo-4-(4-(trifluoromethyl)phenyl)-4,5-dihydro-1H-1,2,4-triazol-1-yl)methyl)phenoxy)-2-methylpropionic acid]",0.394,–,0.664,–,–,–
"CC(C)(Oc1ccc(Cn2ncn(-c3ccc(OC(F)(F)F)cc3)c2=O)cc1F)C(=O)O [Compound 151, 2-(2-Fluoro-4-((5-oxo-4-(4-(trifluoromethoxy)phenyl)-4,5-dihydro-1H-1,2,4-triazol-1-yl)methyl)phenoxy)-2-methylpropionic acid]",0.22,–,0.914,–,–,–
"Cc1cc(Cn2ncn(-c3ccc(C(F)(F)F)cc3)c2=O)ccc1OC(C)(C)C(=O)O [Compound 77, 2-Methyl-2-(2-methyl-4-((5-oxo-4-(4-(trifluoromethyl)phenyl)-4,5-dihydro-1H-1,2,4-triazol-1-yl)methyl)phenoxy)propionic acid]",0.103,–,0.132,–,–,–
"Cc1cc(Cn2ncn(-c3ccc(F)cc3)c2=O)cc(C)c1OC(C)(C)C(=O)O [Compound 109, 2-(4-((4-(4-Fluorophenyl)-5-oxo-4,5-dihydro-1H-1,2,4-triazol-1-yl)methyl)-2,6-dimethylphenoxy)-2-methylpropionic acid]",0.645,–,0.389,–,–,–
"Cc1cc(CCn2ncn(-c3ccc(C(F)(F)F)cc3)c2=O)cc(C)c1OC(C)(C)C(=O)O [Compound 194, 2-(2,6-Dimethyl-4-(2-(5-oxo-4-(4-(trifluoromethyl)phenyl)-4,5-dihydro-1H-1,2,4-triazol-1-yl)ethyl)phenoxy)-2-methylpropionic acid]",–,2.02,0.038,at nanomolar levels,–,–
"CC(C)(Oc1ccc(Cn2ncn(-c3ccc(OC(F)(F)F)cc3)c2=O)cc1)C(=O)O [Compound 153, 2-Methyl-2-(4-((5-oxo-4-(4-(trifluoromethoxy)phenyl)-4,5-dihydro-1H-1,2,4-triazol-1-yl)methyl)phenoxy)propionic acid]",0.498,–,1.68,–,–,–
"CCc1cc(Cn2ncn(-c3ccc(C(F)(F)F)cc3)c2=O)cc(CC)c1OC(C)(C)C(=O)O [Compound 191, 2-(2,6-Diethyl-4-((5-oxo-4-(4-(trifluoromethyl)phenyl)-4,5-dihydro-1H-1,2,4-triazol-1-yl)methyl)phenoxy)-2-methylpropionic acid]",0.044,–,0.042,at nanomolar levels,at nanomolar levels,–
"[2H]C([2H])(c1cc(C)c(OC(C)(C)C(=O)O)c(C)c1)n1ncn(-c2ccc(C(F)(F)F)cc2)c1=O [Compound 187, 2-(2,6-Dimethyl-4-((5-oxo-4-(4-(trifluoromethyl)phenyl)-4,5-dihydro-1H-1,2,4-triazol-1-yl)methyl-d2)phenoxy)-2-methylpropionic acid]",0.01,–,–,at nanomolar levels,at nanomolar levels,0.007
"Cc1cc(Cn2ncn(-c3cccc(C(F)(F)F)c3)c2=O)cc(C)c1OC(C)(C)C(=O)O [Compound 121, 2-(2,6-Dimethyl-4-((5-oxo-4-(3-(trifluoromethyl)phenyl)-4,5-dihydro-1H-1,2,4-triazol-1-yl)methyl)phenoxy)-2-methylpropionic acid]",–,–,0.039,–,–,–
CC(C)(Oc1ccc(Cn2ncn(-c3ccc(C(F)(F)F)cc3)c2=O)cc1C(F)(F)F)C(=O)O [Compound 147],–,1.8,0.081,–,–,–
"Cc1cc(Cn2ncn(-c3ccc(C(C)C)cc3)c2=O)cc(C)c1OC(C)(C)C(=O)O [Compound 115, 2-(4-((4-(4-Isopropylphenyl)-5-oxo-4,5-dihydro-1H-1,2,4-triazol-1-yl)methyl)-2,6-dimethylphenoxy)-2-methylpropionic acid]",0.008,1.76,–,–,–,–
"Cc1cc(Cn2ncn(-c3ccc(OC(F)(F)F)cc3)c2=O)cc(Cl)c1OC(C)(C)C(=O)O [Compound 145, 2-(2-Chloro-6-methyl-4-((5-oxo-4-(4-(trifluoromethoxy)phenyl)-4,5-dihydro-1H-1,2,4-triazol-1-yl)methyl)phenoxy)-2-methylpropionic acid]",0.008,–,–,at nanomolar levels,at nanomolar levels,0.029
"Cc1cc(Cn2ncn(-c3ccc(-c4ccccc4)cc3)c2=O)cc(C)c1OC(C)(C)C(=O)O [Compound 117, 2-(4-((4-([1,1′-Biphenyl]-4-yl)-5-oxo-4,5-dihydro-1H-1,2,4-triazol-1-yl)methyl)-2,6-dimethylphenoxy)-2-methylpropionic acid]",–,–,0.135,–,–,–
"CC(C)(Oc1c(F)cc(Cn2ncn(-c3ccc(OC(F)(F)F)cc3)c2=O)cc1F)C(=O)O [Compound 155, 2-(2,6-Difluoro-4-((5-oxo-4-(4-(trifluoromethoxy)phenyl)-4,5-dihydro-1H-1,2,4-triazol-1-yl)methyl)phenoxy)-2-methylpropionic acid]",0.351,–,1.37,–,–,–
"CC(C)(Oc1c(F)cc(Cn2ncn(-c3ccc(C(F)(F)F)cc3)c2=O)cc1F)C(=O)O [Compound 127, 2-(2,6-Difluoro-4-((5-oxo-4-(4-(trifluoromethyl)phenyl)-4,5-dihydro-1H-1,2,4-triazol-1-yl)methyl)phenoxy)-2-methylpropionic acid]",–,–,0.586,–,–,–
"CC(C)(Oc1ccc(Cn2ncn(-c3ccc(C(F)(F)F)cc3)c2=O)cc1)C(=O)O [Compound 137, 2-(4-((4-(4-Trifluoromethylphenyl)-5-oxo-4,5-dihydro-1H-1,2,4-triazol-1-yl)methyl)phenoxy)-2-methylpropionic acid]",–,–,1.52,–,–,–
"Cc1cc(CCCn2ncn(-c3ccc(C(F)(F)F)cc3)c2=O)cc(C)c1OC(C)(C)C(=O)O [Compound 200, 2-(2,6-Dimethyl-4-(3-(5-oxo-4-(4-(trifluoromethyl)phenyl)-4,5-dihydro-1H-1,2,4-triazol-1-yl)propyl)phenoxy)-2-methylpropionic acid]",0.134,–,0.212,–,–,–
"Cc1cc(OCn2ncn(-c3ccc(C(F)(F)F)cc3)c2=O)cc(C)c1OC(C)(C)C(=O)O [Compound 196, 2-(2,6-Dimethyl-4-((5-oxo-4-(4-(trifluoromethyl)phenyl)-4,5-dihydro-1H-1,2,4-triazol-1-yl)methoxy)phenoxy)-2-methylpropionic acid]",0.086,–,0.056,–,–,–
"CC(C)(Oc1c(Cl)cc(Cn2ncn(-c3ccc(OC(F)(F)F)cc3)c2=O)cc1Cl)C(=O)O [Compound 149, 2-(2,6-Dichloro-4-((5-oxo-4-(4-(trifluoromethoxy)phenyl)-4,5-dihydro-1H-1,2,4-triazo 1-1-yl)methyl)phenoxy)-2-methylpropionic acid]",0.007,–,0.225,–,–,–
"CCOc1ccc(-n2cnn(Cc3cc(C)c(OC(C)(C)C(=O)O)c(C)c3)c2=O)cc1 [Compound 69, 2-(4-((4-(4-Ethoxyphenyl)-5-oxo-4,5-dihydro-1H-1,2,4-triazol-1-yl)methyl)-2,6-dimethylphenoxy)-2-methylpropionic acid]",0.033,–,0.481,–,–,–
